Measurements published in ChEMBL document CHEMBL1201862, “PubChem BioAssay data set” (2004).
Where “and” joins values, the source holds several entries; their conditions need not be identical. Equal values may be shown once.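 A five-concentration, 48-hour dose response in 96-well plates underlies each endpoint, interpolated linearly between surrounding concentrations. GI50 marks 50% less growth.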 Calls of active or inactive are those of the source. No stated cut-off is given here; in the data, active = GI50 up to about 1.1 µM and inactive = higher.

Tests used:
Assay in all cases: growth of human tumour cells (NCI), 48 h
MDA-MB-231 = test system: MDA-MB-231
SF-539 = test system: SF-539
SR = test system: SR
MCF7 = test system: MCF7
DU-145 = test system: DU-145
NCI-H226 = test system: NCI-H226
A498 = test system: A498
MDA-MB-435 = test system: MDA-MB-435
NCI/ADR-RES = test system: NCI/ADR-RES
T47D = test system: T47D
PC-3 = test system: PC-3
MDA-N = test system: MDA-N
RPMI-8226 = test system: RPMI-8226
LOX IMVI = test system: LOX IMVI
HCC 2998 = test system: HCC 2998
HOP-92 = test system: HOP-92
Malme-3M = test system: Malme-3M
BT-549 = test system: BT-549
786-0 = test system: 786-0

SMILES	GI50 (MDA-MB-231)	GI50 (SF-539)	GI50 (SR)	GI50 (MCF7)	GI50 (DU-145)	GI50 (NCI-H226)	GI50 (A498)	GI50 (MDA-MB-435)	GI50 (NCI/ADR-RES)	GI50 (T47D)	GI50 (PC-3)	GI50 (MDA-N)	GI50 (RPMI-8226)	GI50 (LOX IMVI)	GI50 (HCC 2998)	GI50 (HOP-92)	GI50 (Malme-3M)	GI50 (BT-549)	GI50 (786-0)
O=C1OC(c2ccccc2)=N/C1=C\c1ccccc1	> 100 µM (inactive)	19 µM (inactive) and 21.1 µM (inactive)	28.4 µM (inactive) and 14.5 µM (inactive)	48.4 µM (inactive) and 96.6 µM (inactive)	> 100 µM (inactive) and 59 µM (inactive)	24 µM (inactive) and 36.6 µM (inactive)	> 100 µM (inactive)	64 µM (inactive) and 56 µM (inactive)	29.2 µM (inactive) and 40.7 µM (inactive)	> 100 µM (inactive)	> 100 µM (inactive)	44.7 µM (inactive)	30.5 µM (inactive) and 22.5 µM (inactive)	17.1 µM (inactive) and 23.3 µM (inactive)	> 100 µM (inactive) and 67.9 µM (inactive)	> 100 µM (inactive)	–	–	–
N/C(=N\O)N/N=C/c1cc2c(cc1Cl)OCO2	–	31.8 µM (inactive)	–	22.3 µM (inactive)	–	29.1 µM (inactive)	65.6 µM (inactive)	–	18 µM (inactive)	–	–	–	24 µM (inactive)	31.5 µM (inactive)	26 µM (inactive)	28.3 µM (inactive)	> 100 µM (inactive)	–	–
CN(CC(=O)O)c1ncc2c(n1)-c1ccccc1OC2c1ccccc1 (stereo not given)	> 100 µM (inactive)	> 100 µM (inactive)	37 µM (inactive)	> 100 µM (inactive)	> 100 µM (inactive)	86.7 µM (inactive)	–	> 100 µM (inactive)	> 100 µM (inactive)	–	61.1 µM (inactive)	> 100 µM (inactive)	38.1 µM (inactive)	> 100 µM (inactive)	–	> 100 µM (inactive)	> 100 µM (inactive)	–	–
CC1=C2c3ccccc3N(C(=O)/C=C/C(=O)O)[C@H]2[C@H]2C(=O)OC(=O)[C@H]2C1	> 10 µM (inactive)	> 10 µM (inactive)	> 10 µM (inactive)	> 10 µM (inactive)	> 10 µM (inactive)	> 10 µM (inactive)	> 10 µM (inactive)	> 10 µM (inactive)	> 10 µM (inactive)	> 10 µM (inactive)	> 10 µM (inactive)	> 10 µM (inactive)	> 10 µM (inactive)	–	> 10 µM (inactive)	–	> 10 µM (inactive)	–	–
CN(C)CC(CO)(CN(C)C)CN(C)C	–	> 100 µM (inactive)	> 100 µM (inactive)	> 100 µM (inactive)	> 100 µM (inactive)	> 100 µM (inactive)	–	–	> 100 µM (inactive)	–	> 100 µM (inactive)	> 100 µM (inactive)	> 100 µM (inactive)	–	–	> 100 µM (inactive)	> 100 µM (inactive)	> 100 µM (inactive)	> 100 µM (inactive)
O=C(CCC(NC(=O)OCc1ccccc1)C(=O)OCc1ccccc1)Nc1cccc(OCc2ccccc2)c1 (stereo not given)	25.4 µM (inactive)	19.2 µM (inactive)	18.5 µM (inactive)	20.7 µM (inactive)	28.4 µM (inactive)	29.1 µM (inactive)	–	20 µM (inactive)	36.2 µM (inactive)	19.5 µM (inactive)	13.2 µM (inactive)	32.1 µM (inactive)	–	19.3 µM (inactive)	42.7 µM (inactive)	25 µM (inactive)	14.5 µM (inactive)	–	17.7 µM (inactive)
CN(C)N1C(=O)C(=O)N(c2cccc3ccccc23)C1=O	> 10 µM (inactive)	> 10 µM (inactive)	> 10 µM (inactive)	> 10 µM (inactive)	> 10 µM (inactive)	> 10 µM (inactive)	> 10 µM (inactive)	> 10 µM (inactive)	> 10 µM (inactive)	> 10 µM (inactive)	> 10 µM (inactive)	> 10 µM (inactive)	> 10 µM (inactive)	> 10 µM (inactive)	> 10 µM (inactive)	–	> 10 µM (inactive)	–	–
CC1(CO)COS(=O)OC1 (stereo not given)	> 100 µM (inactive)	–	> 100 µM (inactive)	> 100 µM (inactive)	> 100 µM (inactive)	> 100 µM (inactive)	1.89 µM (inactive)	> 100 µM (inactive)	> 100 µM (inactive)	> 100 µM (inactive)	> 100 µM (inactive)	> 100 µM (inactive)	–	> 100 µM (inactive)	> 100 µM (inactive)	> 100 µM (inactive)	–	–	–
COc1ccc2c(c1)-c1oc3ccccc3c(=O)c1CO2	36.3 µM (inactive)	35.5 µM (inactive)	–	36.9 µM (inactive)	40.1 µM (inactive)	50.4 µM (inactive)	–	25.6 µM (inactive)	29.4 µM (inactive)	29.9 µM (inactive)	31.9 µM (inactive)	23.4 µM (inactive)	20.8 µM (inactive)	21.6 µM (inactive)	46.5 µM (inactive)	–	55.8 µM (inactive)	37.3 µM (inactive)	31.7 µM (inactive)
c1ccc(/N=C(\N2CCCCC2)N(CCN2CCCCC2)c2ccccc2)cc1	1.39 µM (inactive)	–	0.28 µM (active)	–	2.1 µM (inactive)	2.62 µM (inactive)	–	1.51 µM (inactive)	1.65 µM (inactive)	1.08 µM (active)	0.53 µM (active)	0.718 µM (active)	0.192 µM (active)	0.622 µM (active)	1.69 µM (inactive)	1.44 µM (inactive)	–	–	–
O=C1c2ccccc2C2(c3ccc(Cl)cc3)N[C@H]3CCCC[C@@H]3N12 (stereo not given in full)	> 100 µM (inactive)	–	43.6 µM (inactive)	–	> 100 µM (inactive)	61.1 µM (inactive)	> 100 µM (inactive)	> 100 µM (inactive)	63 µM (inactive)	> 100 µM (inactive)	> 100 µM (inactive)	> 100 µM (inactive)	54.1 µM (inactive)	> 100 µM (inactive)	–	> 100 µM (inactive)	–	> 100 µM (inactive)	95.1 µM (inactive)
OC1C2CCC3C2CC(C(O)(c2ccccc2)c2ccccc2)C13 (stereo not given)	29.6 µM (inactive)	38.3 µM (inactive)	32.7 µM (inactive)	84.5 µM (inactive)	> 100 µM (inactive)	28.6 µM (inactive)	37 µM (inactive)	32.6 µM (inactive)	36.6 µM (inactive)	79.3 µM (inactive)	21.4 µM (inactive)	33.3 µM (inactive)	–	37.8 µM (inactive)	> 100 µM (inactive)	45.2 µM (inactive)	28.4 µM (inactive)	–	37.5 µM (inactive)
Cc1ccc(O)c(C(c2ccc([N+](=O)[O-])cc2)c2cc(C)ccc2O)c1	12 µM (inactive)	15.3 µM (inactive)	3.98 µM (inactive)	4.98 µM (inactive)	12.1 µM (inactive)	15.9 µM (inactive)	18.4 µM (inactive)	10.9 µM (inactive)	10.7 µM (inactive)	11.2 µM (inactive)	3.59 µM (inactive)	–	10.1 µM (inactive)	22.7 µM (inactive)	2.99 µM (inactive)	11.1 µM (inactive)	–	–	21.2 µM (inactive)
Cc1c2c(cc3c1[nH]c1ccccc13)C(c1ccc(Cl)cc1)=NCC2	–	0.667 µM (active)	–	0.236 µM (active)	–	1.3 µM (inactive)	0.124 µM (active)	–	0.264 µM (active)	–	–	–	0.497 µM (active)	0.424 µM (active)	0.991 µM (active)	0.716 µM (active)	1.83 µM (inactive)	–	–
O=C(O)C(=C\c1ccc2c(c1)OCO2)/C(=C/c1ccc2c(c1)OCO2)C(=O)O	–	–	> 100 µM (inactive)	> 100 µM (inactive)	> 100 µM (inactive)	> 100 µM (inactive)	> 100 µM (inactive)	> 100 µM (inactive)	> 100 µM (inactive)	> 100 µM (inactive)	> 100 µM (inactive)	> 100 µM (inactive)	> 100 µM (inactive)	> 100 µM (inactive)	> 100 µM (inactive)	> 100 µM (inactive)	> 100 µM (inactive)	> 100 µM (inactive)	–
N#CCCN(CCN(CCC#N)C(=O)Nc1ccccc1)C(=O)Nc1ccccc1	> 100 µM (inactive)	–	> 100 µM (inactive)	> 100 µM (inactive)	76.9 µM (inactive)	> 100 µM (inactive)	> 100 µM (inactive)	–	72.6 µM (inactive)	> 100 µM (inactive)	69.3 µM (inactive)	> 100 µM (inactive)	> 100 µM (inactive)	> 100 µM (inactive)	> 100 µM (inactive)	37.6 µM (inactive)	> 100 µM (inactive)	31 µM (inactive)	75.5 µM (inactive)
CC12C3C4C1C1C2C3C41CO (stereo not given)	> 100 µM (inactive)	> 100 µM (inactive)	> 100 µM (inactive)	> 100 µM (inactive)	> 100 µM (inactive)	> 100 µM (inactive)	> 100 µM (inactive)	> 100 µM (inactive)	> 100 µM (inactive)	–	–	> 100 µM (inactive)	–	> 100 µM (inactive)	–	> 100 µM (inactive)	–	–	> 100 µM (inactive)
FC(F)(F)c1ccc(/N=N/N2CCCC2)cc1	> 100 µM (inactive)	> 100 µM (inactive)	68.7 µM (inactive)	> 100 µM (inactive)	> 100 µM (inactive)	> 100 µM (inactive)	> 100 µM (inactive)	> 100 µM (inactive)	–	23.6 µM (inactive)	> 100 µM (inactive)	> 100 µM (inactive)	> 100 µM (inactive)	> 100 µM (inactive)	> 100 µM (inactive)	80 µM (inactive)	> 100 µM (inactive)	> 100 µM (inactive)	> 100 µM (inactive)
